Test results reported in article PMC3138190 (Bioorganic & medicinal chemistry, 2011).
Blank lines part the entries; values can stand above or below the molecule they belong to.

Legend:
[1] = test system: FPGS; settings: addition of only one additional glutamic acid; cited from earlier work
[2] = test system: hFPGS, from CCRF-CEM cells; settings: at concentrations up to 1045 μM; cited from earlier work
[3] = biological target: T1, human DHFR (Homo sapiens, UniProt P00374); test: Dihydrofolate reductase; assay type: biochemical; settings: for activity against DHFR in words: DHFR from different sources
T1 sequence (P00374 1-187): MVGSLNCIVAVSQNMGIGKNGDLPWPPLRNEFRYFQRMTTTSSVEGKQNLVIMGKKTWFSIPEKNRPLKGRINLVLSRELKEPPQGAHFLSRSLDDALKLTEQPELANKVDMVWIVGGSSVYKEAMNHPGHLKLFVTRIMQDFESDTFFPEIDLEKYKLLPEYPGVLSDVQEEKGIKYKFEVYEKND

[4] = biological target: human TS (Homo sapiens, UniProt P04818); test: Thymidylate synthase; assay type: biochemical
Sequence of human TS (P04818 whole entry): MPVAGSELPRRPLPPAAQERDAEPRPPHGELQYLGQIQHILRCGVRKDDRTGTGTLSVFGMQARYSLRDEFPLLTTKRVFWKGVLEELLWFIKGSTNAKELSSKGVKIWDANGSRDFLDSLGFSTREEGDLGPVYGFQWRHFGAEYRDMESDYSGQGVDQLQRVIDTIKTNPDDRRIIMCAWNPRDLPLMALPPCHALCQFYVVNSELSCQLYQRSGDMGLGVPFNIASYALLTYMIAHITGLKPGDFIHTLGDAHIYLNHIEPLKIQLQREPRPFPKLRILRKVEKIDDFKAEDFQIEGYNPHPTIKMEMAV

Structure (SMILES): Cc1nc2ccc3ccc(CNc4ccc5c(c4)CN([C@@H](CCC(=O)O)C(=O)O)C5=O)cc3c2c(=O)[nH]1 [Compound 2]
substrate activity for FPGS [1]: excellent substrate

Structure (SMILES): Cc1[nH]c2nc(N)[nH]c(=O)c2c1Sc1ccc(C(=O)N[C@@H](CCC(=O)O)C(=O)O)cc1 [Compound 3, N-{4-[(2-amino-6-methyl-4-oxo-4,7-dihydro-3H-pyrrolo[2,3-d]pyrimidin-5-yl)thio]benzoyl}-L-glutamic acid]
substrate activity for hFPGS [2]: not a substrate

activity against DHFR in words [3]: inactive
Structure (SMILES): Cc1nc2sc3cccc(CNc4ccc(C(=O)N[C@@H](CCC(=O)O)C(=O)O)cc4)c3c2c(=O)[nH]1 [Compound 4, N-(4-{[(2-methyl-4-oxo-3,4-dihydro[1]benzothieno[2,3-d]pyrimidin-5-yl)methyl]amino}benzoyl)-L-glutamic acid]

potency against hTS relative to 4 (less potent) ([4]; hTS, rigid versus flexible side chain, 2-methyl): 3 fold | activity against DHFR in words [3]: inactive
Structure (SMILES): Cc1nc2sc3cccc(CNc4ccc5c(c4)CN([C@@H](CCC(=O)O)C(=O)O)C5=O)c3c2c(=O)[nH]1 [Compound 5, (2S)-2-(5-{[(2-methyl-4-oxo-3,4-dihydro[1]benzothieno[2,3-d]pyrimidin-5-yl)methyl]amino}-1-oxo-1,3-dihydro-2H-isoindol-2-yl)pentanedioic acid]

potency against hDHFR relative to MTX (less potent) [3]: about 5 times
Structure (SMILES): Nc1nc2sc3cccc(CNc4ccc(C(=O)N[C@@H](CCC(=O)O)C(=O)O)cc4)c3c2c(=O)[nH]1 [Compound 6, N-(4-{[(2-amino-4-oxo-3,4-dihydro[1]benzothieno[2,3-d]pyrimidin-5-yl)methyl]amino}benzoyl)-L-glutamic acid]

potency against hTS relative to compound 1 (more potent) ([4]; hTS): 2 fold | potency relative to 6 ([4]; rigid versus flexible side chain, 2-amino): twice as potent | potency against hDHFR relative to MTX (less potent) [3]: about 5 times
Structure (SMILES): Nc1nc2sc3cccc(CNc4ccc5c(c4)CN([C@@H](CCC(=O)O)C(=O)O)C5=O)c3c2c(=O)[nH]1 [Compound 7, (2S)-2-(5-{[(2-Amino-4-oxo-3,4-dihydro[1]benzothieno[2,3-d]pyrimidin-5-yl)methyl]amino}-1-oxo-1,3-dihydro-2H-isoindol-2-yl)pentanedioic acid]
